ChEMBL document CHEMBL1201862, “PubChem BioAssay data set” (2004)
Structures can show the parent of a compound that is named as a salt. Calls of active or inactive are those of the source.

What was measured:
NS3 = NS3 (Hepatitis C virus, UniProt A3EZJ3); test: PubChem AID 2173; parameters: species or system Hepacivirus hominis
HeLa = test: Cytotoxicity counterscreen assay for transcriptional activators of heat shock protein 70 (Hsp70). [Related pubchem assays: 1203, 1252 ]; type: functional; details: Homo sapiens;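 further: cells exposed to compound for 16 hours before readout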
[1] = Shn3 3'UTR reporter inhibitors, dose response, cell-based, Clone20 osteoblasts, firefly luciferase, cherry-picked (AID 624132); type: functional;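 further: firefly luciferase luminescence from reporter carrying the Shn3 3'UTR in osteoblasts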
[2] = biological target: T1, Microphthalmia-associated transcription factor (Homo sapiens, UniProt O75030); test: TRPM1 promoter luciferase signal decrease, dose response, MITF inhibitor project, cell-based, SK-MEL-5, cherry-picked, set 3 (AID 493073); type: functional
T1 sequence (O75030 whole entry): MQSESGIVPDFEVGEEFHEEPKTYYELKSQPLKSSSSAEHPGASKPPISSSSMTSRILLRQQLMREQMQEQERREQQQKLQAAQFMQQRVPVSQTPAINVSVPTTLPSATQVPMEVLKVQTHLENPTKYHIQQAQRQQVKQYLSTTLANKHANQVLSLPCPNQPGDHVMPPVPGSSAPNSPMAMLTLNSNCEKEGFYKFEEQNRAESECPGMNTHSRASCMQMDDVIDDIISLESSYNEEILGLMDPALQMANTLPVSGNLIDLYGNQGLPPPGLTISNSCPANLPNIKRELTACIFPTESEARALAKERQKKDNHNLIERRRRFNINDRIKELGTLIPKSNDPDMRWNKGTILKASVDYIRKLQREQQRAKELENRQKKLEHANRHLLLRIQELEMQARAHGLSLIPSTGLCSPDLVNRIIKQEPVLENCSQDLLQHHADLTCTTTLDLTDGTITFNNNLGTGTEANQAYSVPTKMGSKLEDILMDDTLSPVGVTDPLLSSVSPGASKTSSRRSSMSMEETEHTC

[3] = HepG2 cell cytotoxicity, dose response, cytotoxicity control for Shn3 inhibitor project, CellTiter-Glo, cherry-picked (AID 624134); type: functional, cell-based
[4] = A549 cell cytotoxicity, dose response, cytotoxicity control, cherry-picks, 26 µM top dose (AID 1053119); type: functional, cell-based
[5] = control 3'UTR Renilla luciferase suppression, dose response, counter-screen for Shn3 inhibitor project, cell-based, Clone20-Shn3RL, cherry-picked (AID 624133); type: functional
[6] = Luminescence Cell-Based Dose Retest to Confirm Inhibitors of Cancer Stem Cells. [Related pubchem assays (depositor defined):AID2717, AID2721]; type: functional; details: Homo sapiens
Streptococcus [7] = test: Group A Streptococcus viability loss, dose response, counter-screen for streptokinase expression inhibitor project, luminescence, BacTiterGlo (AID 1915); type: functional, organism-based;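 further: potency for reduction of bacterial viability or growth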
Streptokinase A = biological target: T2, Streptokinase A (Streptococcus pyogenes serotype M1, UniProt P10520); test: S. pyogenes streptokinase expression inhibitors, potency, dose response, plasminogen activation absorbance, OD405 (AID 1914); type: functional, Streptococcus pyogenes M1 GAS;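 further: secreted streptokinase activity via plasminogen activation per viability signal from cell pellet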
T2 sequence (P10520 whole entry): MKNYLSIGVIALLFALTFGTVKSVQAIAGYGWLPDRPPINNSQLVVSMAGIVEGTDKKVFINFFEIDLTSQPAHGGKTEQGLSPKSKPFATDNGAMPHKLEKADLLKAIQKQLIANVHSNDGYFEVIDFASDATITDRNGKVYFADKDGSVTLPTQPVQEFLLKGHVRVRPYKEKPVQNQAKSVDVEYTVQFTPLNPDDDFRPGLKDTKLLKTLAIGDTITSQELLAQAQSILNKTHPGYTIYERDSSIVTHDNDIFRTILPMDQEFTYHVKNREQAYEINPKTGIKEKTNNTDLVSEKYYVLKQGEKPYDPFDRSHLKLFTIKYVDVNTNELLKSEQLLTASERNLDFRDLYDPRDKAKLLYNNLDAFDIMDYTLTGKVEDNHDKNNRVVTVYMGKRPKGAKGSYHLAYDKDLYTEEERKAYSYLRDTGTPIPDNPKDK

[8] = test system: Streptococcus sp. 'group A'; test: growth inhibition of control SK(-) GAS strain, dose response, counter-screen for streptokinase expression inhibitor project, luminescence, kanamycin, BacTiterGlo, confirmation (AID 1900); type: functional, organism-based
Streptococcus [9] = test: Luminescence Microorganism-Based Dose Response Follow up to Identify Compounds Cytotoxic to Streptococcus. [Related pubchem assays: 1677 (Project Summary), 1915, 1914, 1902 (Retest at Dose), 1900 (Counter Screen), 1662 (Primary HTS)]; type: functional, organism-based
[10] = NIH-3T3 fibroblast cytotoxicity, dose response, cytotoxicity control, cell-based, fluorescence, Alamar Blue, secondary assay (AID 2327); type: functional;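 further: NIH-3T3 mouse fibroblasts cultured with fluconazole at 8 µg/mL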
Estrogen receptor beta = Estrogen receptor beta (Homo sapiens, UniProt Q92731); test: ERβ–SRC-3 coactivator interaction inhibitors, confirmation, orthogonal assay, biochemical, ELISA, streptavidin-HRP readout (AID 1060)
Sequence of Estrogen receptor beta (Q92731 whole entry): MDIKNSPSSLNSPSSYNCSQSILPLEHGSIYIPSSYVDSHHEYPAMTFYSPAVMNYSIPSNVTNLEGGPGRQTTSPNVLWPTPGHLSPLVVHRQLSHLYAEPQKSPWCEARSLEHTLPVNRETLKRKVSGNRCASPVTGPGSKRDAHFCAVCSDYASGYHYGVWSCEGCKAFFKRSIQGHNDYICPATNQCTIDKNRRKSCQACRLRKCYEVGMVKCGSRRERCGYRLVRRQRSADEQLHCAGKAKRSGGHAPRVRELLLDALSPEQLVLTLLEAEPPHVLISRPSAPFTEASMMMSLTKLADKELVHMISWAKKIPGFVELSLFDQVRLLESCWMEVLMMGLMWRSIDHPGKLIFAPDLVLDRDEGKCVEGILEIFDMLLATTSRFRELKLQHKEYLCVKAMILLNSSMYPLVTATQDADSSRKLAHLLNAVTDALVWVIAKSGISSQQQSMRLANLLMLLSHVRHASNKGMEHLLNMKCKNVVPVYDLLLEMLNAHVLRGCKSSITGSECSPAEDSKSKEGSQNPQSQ

[11] = biological target: T3, Mannose-6-phosphate isomerase (Homo sapiens, UniProt P34949); test: human PMI inhibitors, high substrate, primary screen, biochemical, fluorescence intensity, high mannose 6-phosphate (AID 1220)
T3 sequence (P34949 whole entry): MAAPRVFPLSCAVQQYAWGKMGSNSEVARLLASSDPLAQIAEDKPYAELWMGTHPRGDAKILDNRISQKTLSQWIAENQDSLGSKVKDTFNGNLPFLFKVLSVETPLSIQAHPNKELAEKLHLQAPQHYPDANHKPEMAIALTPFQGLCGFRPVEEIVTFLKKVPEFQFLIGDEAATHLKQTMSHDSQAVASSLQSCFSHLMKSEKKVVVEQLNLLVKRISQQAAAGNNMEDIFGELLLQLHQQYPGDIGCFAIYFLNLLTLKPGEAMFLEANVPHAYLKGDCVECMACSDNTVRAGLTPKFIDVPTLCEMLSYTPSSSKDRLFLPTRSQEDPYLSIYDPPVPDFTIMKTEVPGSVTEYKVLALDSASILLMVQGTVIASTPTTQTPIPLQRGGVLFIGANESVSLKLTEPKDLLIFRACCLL

[12] = biological target: Serine/threonine-protein phosphatase PP1-alpha catalytic subunit (Homo sapiens, UniProt P62136); test: PP1 phosphatase inhibitors, dose response, biochemical, fluorescence (AID 2403);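 further: phosphatase turnover of OMFP into fluorescent 3-O-methylfluorescein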
Sequence of Serine/threonine-protein phosphatase PP1-alpha catalytic subunit (P62136 whole entry): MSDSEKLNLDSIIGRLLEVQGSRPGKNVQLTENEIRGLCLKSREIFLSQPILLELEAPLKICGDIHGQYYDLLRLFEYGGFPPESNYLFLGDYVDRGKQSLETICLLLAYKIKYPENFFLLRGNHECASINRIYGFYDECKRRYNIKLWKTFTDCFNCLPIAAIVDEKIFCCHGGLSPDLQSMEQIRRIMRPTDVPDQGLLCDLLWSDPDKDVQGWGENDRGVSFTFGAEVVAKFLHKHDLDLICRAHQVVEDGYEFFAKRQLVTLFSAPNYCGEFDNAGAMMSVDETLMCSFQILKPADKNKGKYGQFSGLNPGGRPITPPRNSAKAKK

[13] = cytotoxicity in KRAS-transformed pancreatic duct cells, primary screen, cell-based, fluorescence, HTS (AID 431); type: functional; details: Homo sapiens;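 further: cell line used: HPDE-C7K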
[14] = C. albicans growth with fluconazole, confirmation, fluorescence, retest (AID 2467); type: functional, cell-based
[15] = biological target: Serine/threonine-protein phosphatase (Homo sapiens, UniProt Q9BPW0); test: Counterscreen for inhibitors of PP1: fluorescence-based biochemical high throughput dose response assay to identify inhibitors of Protein Phosphatase 5 (PP5). [Related pubchem assays: 2034 (Summary (PP5 inhibitors)), 1987 (PP5 inhibitors in singlate), 2235 (PP1 inhibitors in singlate)]
Sequence of Serine/threonine-protein phosphatase (Q9BPW0 whole entry): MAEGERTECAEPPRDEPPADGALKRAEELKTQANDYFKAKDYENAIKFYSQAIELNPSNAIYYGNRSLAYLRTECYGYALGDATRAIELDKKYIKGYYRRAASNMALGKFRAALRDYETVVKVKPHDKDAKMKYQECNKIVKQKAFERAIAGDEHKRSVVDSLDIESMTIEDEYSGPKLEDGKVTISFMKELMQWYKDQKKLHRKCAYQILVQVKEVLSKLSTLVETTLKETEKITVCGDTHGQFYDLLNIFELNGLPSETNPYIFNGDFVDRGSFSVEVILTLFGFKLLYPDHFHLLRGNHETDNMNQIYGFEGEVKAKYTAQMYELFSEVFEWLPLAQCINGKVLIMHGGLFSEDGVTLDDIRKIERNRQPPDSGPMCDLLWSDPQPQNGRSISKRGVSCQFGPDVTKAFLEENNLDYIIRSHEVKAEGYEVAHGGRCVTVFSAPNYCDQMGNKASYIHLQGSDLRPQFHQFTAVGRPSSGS

[16] = biological target: T4, Heat shock factor protein 1 (Mus musculus, UniProt P38532); test: HSF1 potentiators in luciferase reporter cells, confirmation, cell-based, NIH3T3, luminescence, dose retest (AID 435004); type: functional;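 further: stress induced by proteasome inhibitor MG132 added 30 min after compound; luciferase reporter driven by HSF1 response element in NIH3T3 cells; actives raise luminescence as potentiators of the MG132 stress response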
T4 sequence (P38532 whole entry): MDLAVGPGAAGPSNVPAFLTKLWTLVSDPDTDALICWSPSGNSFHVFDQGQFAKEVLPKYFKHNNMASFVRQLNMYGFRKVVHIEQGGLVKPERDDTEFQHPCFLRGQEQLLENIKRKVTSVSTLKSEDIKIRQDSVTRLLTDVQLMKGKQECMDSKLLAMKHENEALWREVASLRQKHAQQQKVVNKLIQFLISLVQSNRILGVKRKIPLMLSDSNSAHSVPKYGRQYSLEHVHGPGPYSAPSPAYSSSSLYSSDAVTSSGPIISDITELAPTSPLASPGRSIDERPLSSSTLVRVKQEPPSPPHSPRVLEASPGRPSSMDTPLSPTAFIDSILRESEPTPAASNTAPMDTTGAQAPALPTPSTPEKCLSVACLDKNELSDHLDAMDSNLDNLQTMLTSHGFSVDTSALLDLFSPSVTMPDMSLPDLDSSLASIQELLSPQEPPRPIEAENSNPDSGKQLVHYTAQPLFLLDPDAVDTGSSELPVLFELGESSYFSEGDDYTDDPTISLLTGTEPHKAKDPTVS

[17] = cytotoxicity in HPDE-C7 cells, cell-based, fluorescence, HTS (AID 430); type: functional; details: Homo sapiens
[18] = Luminescence-based counterscreen assay for KLF5 inhibitors: dose response cell-based high throughput screening assay to identify cytotoxic compounds using the IEC-6 intestinal epithelial cell line. [Related pubchem assays: 1700 (Primary screen.), 1834 (Confirmation screen.), 1858 (Summary AID.), 1905 (Counterscreen.)]; type: functional
[19] = inhibitors of firefly luciferase expression or activity, dose response, H4 neuroglioma cells, luminescence (AID 1990); type: functional, cell-based
[20] = luciferase reporter signal reduction – luminescence, H4-C neuroglioblastoma cells, dose response (AID 2458); type: functional, cell-based;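 further: H4 neuroglioblastoma cells stably carrying a luciferase reporter gene fusion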
cells = type: functional, cell-based
[21] = inhibitors of SNCA 5'UTR-driven translation, confirmation, luminescence, H4 neuroglioblastoma cells, dose confirmation (AID 2454); type: functional, cell-based;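 further: H4 neuroglioblastoma cells carrying an alpha-synuclein 5'UTR luciferase reporter; potency for inhibition of the luciferase signal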
[22] = inhibitors of SNCA 5'UTR-driven reporter translation, confirmation, H4 neuroglioma cells, luminescence (AID 1988); type: functional, cell-based
Estrogen receptor = biological target: T5, Estrogen receptor (Homo sapiens, UniProt P03372);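 further: potency for inhibiting coactivator peptide recruitment to the receptor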
T5 sequence (P03372 whole entry): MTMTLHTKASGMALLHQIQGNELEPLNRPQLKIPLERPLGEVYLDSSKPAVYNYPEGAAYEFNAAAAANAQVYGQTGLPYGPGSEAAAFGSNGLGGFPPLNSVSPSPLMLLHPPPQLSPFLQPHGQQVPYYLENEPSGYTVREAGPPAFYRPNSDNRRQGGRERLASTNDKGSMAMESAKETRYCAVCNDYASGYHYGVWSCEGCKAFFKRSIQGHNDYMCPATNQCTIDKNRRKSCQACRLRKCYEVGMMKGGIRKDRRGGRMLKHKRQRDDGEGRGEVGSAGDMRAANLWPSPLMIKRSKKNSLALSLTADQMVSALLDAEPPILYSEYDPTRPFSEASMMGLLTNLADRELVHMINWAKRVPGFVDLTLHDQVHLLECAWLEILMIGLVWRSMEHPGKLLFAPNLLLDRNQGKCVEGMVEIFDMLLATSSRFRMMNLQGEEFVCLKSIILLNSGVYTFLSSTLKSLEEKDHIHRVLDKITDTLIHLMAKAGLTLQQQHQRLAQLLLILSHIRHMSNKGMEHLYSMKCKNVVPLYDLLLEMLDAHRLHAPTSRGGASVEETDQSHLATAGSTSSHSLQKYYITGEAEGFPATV

[23] = enhancers of respiration in Yfh1-depleted yeast, dose response, Friedreich's ataxia, plus single-dose screen (AID 1465); type: functional;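 further: yeast depleted of Yfh1p frataxin homolog grown on glycerol needing respiration; WST-1 tetrazolium dye reduction as measure of cellular dehydrogenase metabolic activity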
[24] = biological target: 5-hydroxytryptamine receptor 1E (Homo sapiens, UniProt P28566); test: Counterscreen assay for S1P3 antagonists: Dose response cell-based high throughput screening assay to identify antagonists of the 5-Hydroxytryptamine Receptor Subtype 1E (5HT1E). [Related pubchem assays: 1429, 485 ]; type: functional
Sequence of 5-hydroxytryptamine receptor 1E (P28566 whole entry): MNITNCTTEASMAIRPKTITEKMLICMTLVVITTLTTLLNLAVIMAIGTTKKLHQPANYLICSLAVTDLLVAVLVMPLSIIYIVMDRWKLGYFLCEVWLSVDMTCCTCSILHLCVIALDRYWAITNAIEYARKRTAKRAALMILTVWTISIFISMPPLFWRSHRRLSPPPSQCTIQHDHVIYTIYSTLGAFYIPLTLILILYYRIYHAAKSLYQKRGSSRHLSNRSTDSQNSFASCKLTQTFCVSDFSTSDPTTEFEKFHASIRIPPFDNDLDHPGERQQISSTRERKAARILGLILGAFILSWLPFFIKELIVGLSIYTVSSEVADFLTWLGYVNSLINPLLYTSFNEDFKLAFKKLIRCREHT

[25] = biological target: Sphingosine 1-phosphate receptor 3 (Homo sapiens, UniProt Q99500); test: Dose response cell-based high throughput screening assay for antagonists of the Sphingosine 1-Phosphate Receptor 3 (S1P3). [Related pubchem assays: 1429, 485 ]; type: functional
Sequence of Sphingosine 1-phosphate receptor 3 (Q99500 whole entry): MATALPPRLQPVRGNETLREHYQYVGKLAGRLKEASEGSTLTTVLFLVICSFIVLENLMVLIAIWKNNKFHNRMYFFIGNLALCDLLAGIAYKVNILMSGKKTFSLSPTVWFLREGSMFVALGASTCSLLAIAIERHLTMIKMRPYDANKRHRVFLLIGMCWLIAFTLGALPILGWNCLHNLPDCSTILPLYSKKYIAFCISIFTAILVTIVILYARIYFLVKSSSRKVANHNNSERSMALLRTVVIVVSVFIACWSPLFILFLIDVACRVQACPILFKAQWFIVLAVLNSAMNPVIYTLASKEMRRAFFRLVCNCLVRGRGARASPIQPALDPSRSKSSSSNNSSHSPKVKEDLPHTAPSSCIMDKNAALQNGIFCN

[26] = biological target: G2/mitotic-specific cyclin-B1 (Homo sapiens, UniProt P14635); test: Counterscreen assay for inhibitors of Wee1 degradation: dose response cell-based assay to identify inhibitors of cyclin B degradation. [Related pubchem assays: 1410, 1321 ]; type: functional
Sequence of G2/mitotic-specific cyclin-B1 (P14635 whole entry): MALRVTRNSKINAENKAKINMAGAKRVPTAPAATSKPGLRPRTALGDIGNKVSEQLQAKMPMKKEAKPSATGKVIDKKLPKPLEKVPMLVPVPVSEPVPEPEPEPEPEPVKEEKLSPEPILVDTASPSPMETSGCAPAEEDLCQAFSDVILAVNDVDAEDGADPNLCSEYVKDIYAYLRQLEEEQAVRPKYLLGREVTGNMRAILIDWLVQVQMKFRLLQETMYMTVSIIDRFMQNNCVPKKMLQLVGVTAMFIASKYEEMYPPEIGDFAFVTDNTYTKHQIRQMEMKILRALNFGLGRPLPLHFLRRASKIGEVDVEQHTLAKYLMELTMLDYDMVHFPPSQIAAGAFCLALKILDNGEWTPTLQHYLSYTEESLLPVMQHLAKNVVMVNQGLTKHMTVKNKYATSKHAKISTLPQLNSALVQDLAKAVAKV

Wee1-like protein kinase = Wee1-like protein kinase (Homo sapiens, UniProt P30291); test: Dose Response Cell-based Assay for Inhibitors of Wee1 Degradation. [Related pubchem assays: 1410, 1321 ]; type: functional
Sequence of Wee1-like protein kinase (P30291 whole entry): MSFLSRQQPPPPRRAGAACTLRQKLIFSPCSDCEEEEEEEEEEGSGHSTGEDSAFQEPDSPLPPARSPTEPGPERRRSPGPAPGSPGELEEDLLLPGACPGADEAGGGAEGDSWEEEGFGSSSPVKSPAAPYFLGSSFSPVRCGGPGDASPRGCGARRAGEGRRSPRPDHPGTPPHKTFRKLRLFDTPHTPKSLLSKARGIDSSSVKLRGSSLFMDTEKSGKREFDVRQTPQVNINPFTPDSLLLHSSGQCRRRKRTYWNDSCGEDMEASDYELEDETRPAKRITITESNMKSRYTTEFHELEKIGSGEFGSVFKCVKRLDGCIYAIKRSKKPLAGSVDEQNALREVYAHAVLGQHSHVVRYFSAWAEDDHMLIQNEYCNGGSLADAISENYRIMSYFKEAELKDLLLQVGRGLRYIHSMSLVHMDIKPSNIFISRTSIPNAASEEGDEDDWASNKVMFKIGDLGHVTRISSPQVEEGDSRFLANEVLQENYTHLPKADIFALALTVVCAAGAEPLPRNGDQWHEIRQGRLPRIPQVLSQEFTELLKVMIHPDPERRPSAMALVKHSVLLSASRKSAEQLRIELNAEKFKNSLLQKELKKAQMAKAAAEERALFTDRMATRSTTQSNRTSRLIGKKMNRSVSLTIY

Beta-galactosidase = Beta-galactosidase (Escherichia coli, UniProt Q8VNN2); type: functional
Sequence of Beta-galactosidase (Q8VNN2 whole entry): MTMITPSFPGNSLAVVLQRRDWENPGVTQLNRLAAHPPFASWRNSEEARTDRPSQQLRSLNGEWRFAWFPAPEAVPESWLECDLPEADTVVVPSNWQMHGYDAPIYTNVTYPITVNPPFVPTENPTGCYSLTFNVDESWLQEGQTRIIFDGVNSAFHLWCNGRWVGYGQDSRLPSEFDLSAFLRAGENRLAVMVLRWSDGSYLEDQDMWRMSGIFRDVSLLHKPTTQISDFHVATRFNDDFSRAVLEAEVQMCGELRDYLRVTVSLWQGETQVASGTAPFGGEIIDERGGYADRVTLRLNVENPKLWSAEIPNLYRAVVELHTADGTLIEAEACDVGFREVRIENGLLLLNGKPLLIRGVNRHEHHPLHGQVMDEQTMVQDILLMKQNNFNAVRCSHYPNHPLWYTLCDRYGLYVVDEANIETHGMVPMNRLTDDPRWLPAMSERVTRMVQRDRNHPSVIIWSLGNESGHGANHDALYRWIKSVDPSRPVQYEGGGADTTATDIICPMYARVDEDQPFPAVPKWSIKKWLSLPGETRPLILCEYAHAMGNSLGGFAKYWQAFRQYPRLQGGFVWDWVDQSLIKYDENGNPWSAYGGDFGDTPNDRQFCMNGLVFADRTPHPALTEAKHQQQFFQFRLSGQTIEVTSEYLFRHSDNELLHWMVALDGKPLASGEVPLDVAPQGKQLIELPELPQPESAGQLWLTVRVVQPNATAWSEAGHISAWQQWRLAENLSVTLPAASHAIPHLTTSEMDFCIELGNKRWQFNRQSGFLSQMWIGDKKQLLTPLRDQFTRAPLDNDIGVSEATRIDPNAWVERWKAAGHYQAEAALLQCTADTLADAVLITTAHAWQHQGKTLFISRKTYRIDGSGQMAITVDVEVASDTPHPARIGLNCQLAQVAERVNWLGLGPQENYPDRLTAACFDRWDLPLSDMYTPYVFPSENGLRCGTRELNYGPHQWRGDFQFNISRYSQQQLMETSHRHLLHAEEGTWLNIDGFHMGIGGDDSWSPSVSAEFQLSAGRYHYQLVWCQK

Sequence of NS3 (A3EZJ3 whole entry): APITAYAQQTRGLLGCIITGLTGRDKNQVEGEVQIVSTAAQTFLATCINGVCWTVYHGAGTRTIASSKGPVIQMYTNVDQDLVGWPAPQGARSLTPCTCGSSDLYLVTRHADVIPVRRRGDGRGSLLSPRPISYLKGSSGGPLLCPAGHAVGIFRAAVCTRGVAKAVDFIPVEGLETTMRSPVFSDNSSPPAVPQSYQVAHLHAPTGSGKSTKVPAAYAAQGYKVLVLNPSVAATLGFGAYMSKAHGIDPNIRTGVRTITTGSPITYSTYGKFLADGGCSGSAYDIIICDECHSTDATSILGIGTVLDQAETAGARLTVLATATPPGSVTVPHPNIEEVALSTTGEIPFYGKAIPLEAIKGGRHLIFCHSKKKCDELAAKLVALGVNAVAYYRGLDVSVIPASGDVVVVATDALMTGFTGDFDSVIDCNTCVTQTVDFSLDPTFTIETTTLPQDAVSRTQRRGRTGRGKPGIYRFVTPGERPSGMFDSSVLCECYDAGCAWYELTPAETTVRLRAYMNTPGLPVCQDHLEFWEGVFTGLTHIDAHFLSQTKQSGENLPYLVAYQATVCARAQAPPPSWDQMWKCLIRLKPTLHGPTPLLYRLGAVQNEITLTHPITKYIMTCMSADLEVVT

For Cc1cc(O)c(C(=O)/C=C/c2c(F)c(F)c(F)c(F)c2F)c(=O)o1, the IC50 (NS3) was 8.85 µM (active).

With CS(=O)(=O)N1CCN(c2ccc(NC(=O)c3ccc([N+](=O)[O-])o3)cc2)CC1 the CC50 (HeLa) was 4.95 µM (active), the AC50 [1] was 5.65 µM (active) and the AC50 [2] was 4.92 µM (active). For the same compound, the AC50 [3] was 64.6 µM (active), the AC50 [4] was 49.3 µM (active) and the AC50 [5] was 7.78 µM (active).

With CCCCn1c(=O)c(C(=O)NCc2ccccc2)c(O)c2ccccc21 the AC50 [6] was 8.37 µM (active), the EC50 (Streptococcus [7]) was > 150 µM (inconclusive) and the EC50 (Streptokinase A) was 6.35 µM (active). The EC50 [8] was 17.5 µM (active) and the EC50 (Streptococcus [9]) was > 500 µM (not active).

For Oc1c(C(c2ccccn2)N2CCOCC2)ccc2cccnc12 (configuration not stated), the EC50 [10] was > 150 µM (inactive), the IC50 (Estrogen receptor beta) was > 50 µM (not active) and the IC50 [11] was > 50 µM (not active). The IC50 [12] was 2.36 µM (active), the EC50 [13] was > 20 µM (not active) and the EC50 [14] was > 38 µM (not active). For the same compound, the IC50 [15] was > 67 µM (not active), the EC50 [16] was 74.8 µM (active) and the EC50 [17] was > 20 µM (not active).

In the case of CCOC(=O)c1sc(NC(=O)c2sc(C)nc2C)nc1C, the IC50 [18] is reported as > 39.8 µM (not active).

In the case of CN1Cc2cc(C(=O)c3cc(Cl)cc(CSc4ncccn4)c3O)cnc2NC1=O, the EC50 [19] is reported as < 0.1 µM (active), the EC50 [20] is reported as 0.449 µM (active) and the EC50 (cells) is reported as 0.812 µM (active). The EC50 (Streptococcus [7]) was > 150 µM (not active), the EC50 (Streptokinase A) was > 150 µM (not active) and the EC50 [21] was 0.799 µM (active). The EC50 [22] was < 0.1 µM (active), the EC50 [8] was 13.8 µM (active) and the IC50 (Estrogen receptor) was > 50 µM (not active).

In the case of Cn1cccc1/C=C1/SC(=S)N(CC(=O)O)C1=O, the EC50 [23] is reported as > 100 µM (active).

For O=C(CSc1nnc(-c2cccnc2)n1Cc1ccco1)N1c2ccccc2Sc2ccccc21, the IC50 [24] was > 50 µM (not active) and the IC50 [25] was > 50 µM (not active).

With CCN(CC)c1ccc(/C=N/NC(=O)c2ccco2)cc1 the EC50 [26] was > 49.7 µM (not active) and the EC50 (Wee1-like protein kinase) was > 49.7 µM (not active).

With C=CCN1CC[C@]23c4c5ccc(O)c4O[C@H]2C(=O)CC[C@@]3(O)[C@H]1C5 [NALOXONE HYDROCHLORIDE] the EC50 (Beta-galactosidase) was > 31.5 µM (inactive).
